# Assay results from patent US20100063160A1, “POLYMORPHS OF O-DESMETHYL VENLAFAXINE SUCCINATE” (priority 2006, published 2010).
# How the values were obtained:
# [1] = cited from earlier work
# [2] = in vivo, po; cited from earlier work
# [3] = in vivo; cited from earlier work
# [4] = cited from earlier work; remark: listed apart in the source
# [5] = relative stability of ODV succinate polymorphic forms; type: physicochemical; details: compared with the other forms of ODV succinate
# [6] = test system: norepinephrine uptake; details: cited from earlier work
# [7] = test system: serotonin uptake; details: cited from earlier work
smiles,measurement,setting,value
"CN(C)CC(c1ccc(O)cc1)C1(O)CCCCC1.O=C(O)CCC(=O)O (centres unmarked) [ODV succinate, O-desmethyl venlafaxine (ODV) succinate]",solubility,[1],high
same,"incidence of nausea, vomiting, diarrhea, abdominal pain, headache, vasovagal malaise and/or trismus",[2],lower incidence
same,absorption in the gastrointestinal tract,[3],well absorbed
same,bioavailability,[3],high
same,permeability,[4],high
"CN(C)CC(c1ccc(O)cc1)C1(O)CCCCC1.O=C(O)CCC(=O)O (centres unmarked) [Form II of ODV succinate, O-desmethyl venlafaxine (ODV) succinate monohydrate]",stability of polymorphic form,[5],most stable form
"CN(C)CC(c1ccc(O)cc1)C1(O)CCCCC1 (centres unmarked) [ODV, 1-[2-(dimethylamino)-1-(4-hydroxyphenyl)ethyl]cyclohexanol]",norepinephrine uptake inhibition,[6],inhibit
same,serotonin uptake inhibition,[7],inhibit
